± gives the expanded uncertainty stated by the source.
Columns and labels:
[1] = Crystal; visual observation
[2] = Molar enthalpy of transition or fusion; conditions: Crystal; DSC

Oc1ccc2ccccc2c1 [2-hydroxynaphthalene]
Normal melting temperature [1]: 121.20 ± 1.5 °C
Molar enthalpy of transition or fusion [2]: 21.1 ± 3 kJ/mol
